pEC50, pIC50: −log10 of the molar value. Where a name gives a salt, the structure may show the parent alone. Read-outs that look alike come from different tables or passages of the source. One block for each compound: values may come before it.
Tests used:
[1] = test system: aryl hydrocarbon receptor (AhR); conditions: cited from earlier work
PGC-1α/ERRα [2] = assay: PGC/ERR luciferase reporter gene assay, agonist mode; format: cell-based, human; conditions: for AC50 PGC-ERR ↑: agonist mode, 0 = inactive or inconclusive; for pEC50 / AC50: Homo sapiens; for pEC50: read-out: PGC-1α/ERRα (Agonist) EC50; for AC50: read-out: AC50 PGC-ERR ↑
ERRα [3] = assay: ERR luciferase reporter gene assay, agonist mode; format: cell-based, human; conditions: for AC50 ERR ↑: agonist mode, 0 = inactive or inconclusive; for AC50: read-out: AC50 ERR ↑
PGC-1α/ERRα [4] = assay: PGC/ERR luciferase reporter gene assay, antagonist mode; format: cell-based, human; conditions: for pIC50: read-out: PGC-1α/ERRα (Antagonist) IC50; for AC50: read-out: AC50 PGC/ERR ↓
ERRα [5] = assay: ERR luciferase reporter gene assay, antagonist mode; format: cell-based, human; conditions: for pIC50 / AC50: Homo sapiens; for pIC50: read-out: ERRα (Antagonist) IC50; for AC50: read-out: AC50 ERR↓
[6] = test system: PGC/ERR cell line (HEK293T); assay: Cell viability assay multiplexed with PGC/ERR antagonist mode assay; format: cell-based, human; conditions: read-out: PGC-1α/ERRα (Viability) IC50
ERR cell line (HEK293T) = assay: Cell viability assay multiplexed with ERR antagonist mode assay; format: cell-based, human; conditions: read-out: ERRα (Viability) IC50
[7] = test system: ERR and PGC/ERR cell lines; assay: Cell viability; conditions: agonist mode, ERR and PGC/ERR lines (Fig. 3A,B)
[8] = read-out: ERRα (Agonist) EC50, LOPAC qHTS, dash = inconclusive or no activity
[9] = Homo sapiens, read-out: ERRα (Agonist) EC50
[10] = antagonist mode, 0 = inactive or inconclusive

Compound: 6-Bromoindirubin-3-oxime
AC50 AhR ↑ [1]: 5.48 log10(M)*–1
AC50 PGC-ERR ↑ (PGC-1α/ERRα [2]): 5.93 log10(M)*–1
AC50 ERR ↑ (ERRα [3]): 5.78 log10(M)*–1
pEC50 (ERRα [3]; [8]): 5.77

Compound: Nc1nc(Nc2ccccc2)nc2c1ncn2[C@@H]1O[C@H](CO)[C@@H](O)[C@H]1O [2-Phenylaminoadenosine]
pEC50 (PGC-1α/ERRα [2]): 5.77

Compound: Fc1cccc(C=NN=Cc2cccc(F)c2)c1 [3,3 ′-Difluorobenzaldazine]
pEC50 (ERRα [3]; [8]): 4.88

Compound: Nc1nccc2c1ncn2[C@@H]1O[C@H](CO)[C@@H](O)[C@H]1O [3-Deazaadenosine]
pIC50 (PGC-1α/ERRα [4]; Homo sapiens): 4.77

Compound: Brc1c(Br)c(Br)c2[nH]cnc2c1Br [4,5,6,7-Tetrabromobenz-imidazole]
pIC50 (ERRα [5]): 4.77

Compound: Brc1c(Br)c(Br)c2[nH]nnc2c1Br [4,5,6,7-Tetrabromobenzo-triazole]
AC50 (PGC-1α/ERRα [4]; Homo sapiens): 20.9 µM
pIC50 (PGC-1α/ERRα [4]; Homo sapiens): 4.68
AC50 (ERRα [5]): 20.9 µM
pIC50 (ERRα [5]): 4.73

Compound: Nc1ccc(N=Nc2ccccc2)cc1 [4-Aminoazobenzene]
pEC50 (ERRα [3]; [9]): 4.96

Compound: Cc1cccc(C#Cc2ccccc2)n1 [6-Methyl-2-(phenylethynyl)pyridine HCl]
pEC50 (ERRα [3]; [9]): 4.88

Compound: CC1=C(C)C(=O)C(CCCCC#CCCCC#CCO)=C(C)C1=O [AA-861]
pIC50 (ERRα [5]): 4.90

Compound: CC[n+]1c(/C=C/C=C2/N(C)c3ccccc3C2(C)C)sc2ccccc21 [AC-93253 iodide]
pIC50 (PGC-1α/ERRα [4]): 6.38
pIC50 [6]: 5.42
pIC50 (ERR cell line (HEK293T)): 5.08

Compound: O=C1NC(=O)/C(=C/c2ccc3c(c2)OC(F)(F)O3)S1 [AS 604850]
pEC50 (ERRα [3]; [8]): 5.50

Compound: Nc1nc(N)c2nc(CNc3ccc(C(=O)N[C@@H](CCC(=O)O)C(=O)O)cc3)cnc2n1 [Aminopterin]
AC50 (PGC-1α/ERRα [4]; Homo sapiens): 0.0589 µM
pIC50 (PGC-1α/ERRα [4]; Homo sapiens): 7.22
AC50 (ERRα [5]): 0.0468 µM
pIC50 (ERRα [5]): 7.30

Compound: COc1cc(NS(C)(=O)=O)ccc1Nc1c2ccccc2nc2ccccc12 [Amsacrine hydrochloride]
pIC50 (ERR cell line (HEK293T); Homo sapiens, HEK-293T): 4.63

Compound: O=c1cc(-c2ccc(O)cc2)oc2cc(O)cc(O)c12 [Apigenin]
AC50 AhR ↑ [1]: 5.28 log10(M)*–1
AC50 (PGC-1α/ERRα [2]): 2.34 µM

Compound: COc1ccc(-c2cc3nccn3c(Nc3ncccc3C(N)=O)n2)cc1OC.Cl.O [BAY 61-3606 hydrochloride hydrate]
AC50 PGC/ERR ↓ (PGC-1α/ERRα [4]; [10]): 5.63 log10(M)*–1
AC50 ERR↓ (ERRα [5]; [10]): 5.53 log10(M)*–1

Compound: Nc1ccc(-c2ccc3ccccc3n2)cc1 [BF-170 hydrochloride]
AC50 PGC-ERR ↑ (PGC-1α/ERRα [2]): 5.78 log10(M)*–1
AC50 ERR ↑ (ERRα [3]): 5.58 log10(M)*–1
pEC50 (ERRα [3]; [8]): 5.58

Compound: C[C@H]1CCC/C=C/[C@@H]2C[C@H](O)C[C@H]2[C@H](O)/C=C/C(=O)O1 [Brefeldin A]
pIC50 (ERRα [5]): 5.82

Compound: O=c1c(-c2ccc(O)cc2)coc2cc(O)cc(O)c12 [Genistein]
AC50 (PGC-1α/ERRα [2]): 3.31 µM
cytotoxicity at concentrations of outfitted points of agonist curves [7]: cytotoxicity did not appear to be the direct cause for the outfitted points
pEC50 (ERRα [3]; Homo sapiens, 18 h, read-out: EC50, ERRα induction, assay optimization, 2000 cells/well, 18 h): 5.48
pEC50 (ERRα [3]; Homo sapiens, 18 h, read-out: EC50, ERRα induction, assay optimization, 3000 cells/well, 18 h): 5.49
AC50 (ERRα [3]; Homo sapiens): 2.95 µM

Compound: COc1ccc(/C=C2\COc3ccc(C)cc3C2=O)cc1O [IMS2186]
pEC50 (ERRα [3]; [8]): 5.97

The next lines start with results.

pIC50 (PGC-1α/ERRα [4]; Homo sapiens): 5.05
Compound: CCCCC[C@H](CC(=O)NO)C(=O)N[C@H](C(=O)N1CCC[C@H]1CO)C(C)C [Actinonin]

pIC50 (PGC-1α/ERRα [4]; Homo sapiens): 6.12
pIC50 (ERRα [5]): 6.28
Compound: CO[C@H]1O[C@@H]2O[C@@]3(C)CC[C@H]4[C@H](C)CC[C@@H]([C@H]1C)[C@@]24OO3 [Artemether]
AC50 (PGC-1α/ERRα [4]; Homo sapiens): 1.05 µM
AC50 (ERRα [5]): 0.525 µM

pEC50 (ERRα [3]; [8]): 4.77
Compound: Cc1ccc(S(=O)(=O)/C=C/C#N)cc1 [Bay 11-7082]

pEC50 (PGC-1α/ERRα [2]): 4.93
Compound: O=C(/C=C/c1ccc(O)c(O)c1)OCCc1ccccc1 [Caffeic acid phenethyl ester]

pEC50 (ERRα [3]; [9]): 4.88
Compound: O=c1c(-c2ccc(O)cc2)coc2cc(O)ccc12 [Daidzein]
AC50 (PGC-1α/ERRα [2]): 20.9 µM
AC50 (ERRα [3]; Homo sapiens): 13.2 µM

pIC50 (ERRα [5]): 4.83
Compound: C#C[C@]1(O)CC[C@H]2[C@@H]3CCC4=Cc5oncc5C[C@]4(C)[C@H]3CC[C@@]21C [Danazol]

pIC50 (ERRα [5]): 4.93
Compound: OCCN(CCO)c1nc(N2CCCCC2)c2nc(N(CCO)CCO)nc(N3CCCCC3)c2n1 [Dipyridamole]

pEC50 (ERRα [3]; [9]): 5.01
Compound: O=c1cc(-c2ccccc2)oc2ccccc12 [Flavone]

pEC50 (PGC-1α/ERRα [2]): 5.88
Compound: C=C[C@@]1(C)CC(=O)[C@]2(O)[C@@]3(C)[C@@H](O)CCC(C)(C)[C@@H]3[C@H](O)[C@H](OC(C)=O)[C@@]2(C)O1 [Forskolin]

pEC50 (ERRα [3]; [9]): 6.12
Compound: NNc1nncc2ccccc12 [Hydralazine hydrochloride]
